# Source: patent US4228162A (priority 1979, dated 1980)
# Assays:
# [1] = Experimental: The samples were prepared using USP grade aspirin, which was dried at 110° before use. […] Spectrum b was taken after the sample (containing 10% water) was stored at 70° C. for 96 hours.
# rabbit skin [2] = settings: in vivo
# Experimental: (§1) Groups of four albino rabbits were given dosages of 1.00, 2.15, 4.64 and 10.0 ml per kg, respectively.
# [3] = test system: external auditory canal of rabbit ear; assay: Instillation into Rabbit Ear; type: in vivo; settings: four right rabbit ears, up to 5 days
# Experimental: DMI was introduced onto the external auditory canal of each of four right rabbit ears. Likewise, four other right rabbit ears were instilled with 0.35 ml of 40% DMI in water.
# rabbit skin [4] = settings: in vivo; remark: listed apart in the source
# human skin = assay: Human Patch Tests; type: in vivo
# Text: Undiluted dimethyl ether of isosorbide has been tested under a closed patch of human subjects in accordance with the […] patch-test procedure originally designed by the dermatologist, B. Schwartz, M.D., and more recently adapted by R. B. Osbourn, M.D.
# [5] = Preliminary toxicity of dimethyl isosorbide
# Text: We use dimethyl isosorbide (DMI) as the vehicle for the liquid formulation of aspirin. […] When used internally, it is predicted that DMI will be metabolized to form isosorbide, a remedy for diuretic purposes. From the chemical structural point of view, it is seen that DMI is practically inert to aspirin degradation.
# rabbit eye = assay: Eye Irritation--Rabbit; type: in vivo
# Experimental: […] was instilled into the conjunctival sac of the rabbit eye. Over a period of several years two different lots of DMI (designated here merely as A or B) were tested at different times and at various concentrations. […] The following classification of degree of irritancy, according to the terminology of […], was made for the various tests on the unwashed eye: The classification of DMI according to specifications provided in the Federal Hazardous Substances Act for the specified test and concentration are shown below: […]
# rabbit skin [6] = assay: Acute Percutaneous Toxicity--Rabbit
# Experimental: as §1
# rats = assay: Acute Oral Toxicity--Rat; type: in vivo
# Experimental: An approximate oral LD50 of dimethyl isorbide was determined.
compound,measurement,setting,value
"CO[C@H]1CO[C@H]2[C@@H]1OC[C@H]2OC [Dimethyl isosorbide, dimethyl isosorbide]",chemical interaction with aspirin / induction of aspirin degradation,[1],"does not interact chemically with aspirin, not does it induce the degradation of aspirin"
same,erythema,rabbit skin [2],transitory mild to moderate erythema
same,gross pathological findings,rabbit skin [2],No gross pathological findings
same,irritation to the integument of the external auditory canal,[3]; 0.35 ml of 40% DMI in water,No irritation to the integument of the external auditory canal was observed
same,irritation to the integument of the external auditory canal,[3]; DMI,No irritation to the integument of the external auditory canal was observed
same,individual score of single positive reading,rabbit skin [4],1.0
same,score (edema or erythema),rabbit skin [4],No score (edema or erythema) was obtained on any of the rabbits
same,"No. of Reactors/No. of Subj. Tested, 1st Appl.","human skin; 100%, closed patch",0/200
same,"No. of Reactors/No. of Subj. Tested, Both Appl.","human skin; 100%, closed patch",2/200
same,grade of reaction of the two reactors,"human skin; second application only, two subjects",questionable (1) reaction
same,retest of the two reactors,"human skin; semiclosed patch, another site, 48 hours later",both were negative 48 hours
same,primary irritant / skin sensitizer conclusion,"human skin; undiluted, human skin",neither a primary irritant to the human skin nor a skin sensitizer
same,toxicity (preliminary studies),[5],practically nontoxic
same,Class. as Irritating Code of Federal Regulations,"rabbit eye; 40%, lot A, test 1",Negative
same,No. of Eyes Positive / No. of Eyes Tested CFR,"rabbit eye; 40%, lot A, test 1",0/6
same,Average Score (out of potential 100),"rabbit eye; 40%, lot A, test 1, 3 eyes, washed 2 sec., 1 hour",0.0
same,Average Score (out of potential 100),"rabbit eye; 40%, lot A, test 1, 3 eyes, washed 2 sec., 24 hours",0.0
same,Average Score (out of potential 100),"rabbit eye; 40%, lot A, test 1, 3 eyes, washed 2 sec., 48 hours",0.0
same,Average Score (out of potential 100),"rabbit eye; 40%, lot A, test 1, 3 eyes, washed 2 sec., 72 hours",0.0
same,Average Score (out of potential 100),"rabbit eye; 40%, lot A, test 1, 3 eyes, washed 2 sec., 96 hours",0.0
same,Average Score (out of potential 100),"rabbit eye; 40%, lot A, test 1, 3 eyes, washed 2 sec., 7 days",0.0
same,Average Score (out of potential 100),"rabbit eye; 40%, lot A, test 1, 6 eyes, unwashed, 1 hour",0.0
same,Average Score (out of potential 100),"rabbit eye; 40%, lot A, test 1, 6 eyes, unwashed, 24 hours",0.0
same,Average Score (out of potential 100),"rabbit eye; 40%, lot A, test 1, 6 eyes, unwashed, 48 hours",0.0
same,Average Score (out of potential 100),"rabbit eye; 40%, lot A, test 1, 6 eyes, unwashed, 72 hours",0.0
same,Average Score (out of potential 100),"rabbit eye; 40%, lot A, test 1, 6 eyes, unwashed, 96 hours",0.0
same,Average Score (out of potential 100),"rabbit eye; 40%, lot A, test 1, 6 eyes, unwashed, 7 days",0.0
same,Classification (Kay and Calandra),"rabbit eye; 40%, lot A, test 1, unwashed eye",Nonirritating
same,Class. as Irritating Code of Federal Regulations,"rabbit eye; 60%, lot A, test 1",Negative
same,No. of Eyes Positive / No. of Eyes Tested CFR,"rabbit eye; 60%, lot A, test 1",0/6
same,Average Score (out of potential 100),"rabbit eye; 60%, lot A, test 1, 3 eyes, washed 2 sec., 1 hour",0.0
same,Average Score (out of potential 100),"rabbit eye; 60%, lot A, test 1, 3 eyes, washed 2 sec., 24 hours",0.0
same,Average Score (out of potential 100),"rabbit eye; 60%, lot A, test 1, 3 eyes, washed 2 sec., 48 hours",0.0
same,Average Score (out of potential 100),"rabbit eye; 60%, lot A, test 1, 3 eyes, washed 2 sec., 72 hours",0.0
same,Average Score (out of potential 100),"rabbit eye; 60%, lot A, test 1, 3 eyes, washed 2 sec., 96 hours",0.0
same,Average Score (out of potential 100),"rabbit eye; 60%, lot A, test 1, 3 eyes, washed 2 sec., 7 days",0.0
same,Average Score (out of potential 100),"rabbit eye; 60%, lot A, test 1, 6 eyes, unwashed, 1 hour",0.0
same,Average Score (out of potential 100),"rabbit eye; 60%, lot A, test 1, 6 eyes, unwashed, 24 hours",0.0
same,Average Score (out of potential 100),"rabbit eye; 60%, lot A, test 1, 6 eyes, unwashed, 48 hours",0.0
same,Average Score (out of potential 100),"rabbit eye; 60%, lot A, test 1, 6 eyes, unwashed, 72 hours",0.0
same,Average Score (out of potential 100),"rabbit eye; 60%, lot A, test 1, 6 eyes, unwashed, 96 hours",0.0
same,Average Score (out of potential 100),"rabbit eye; 60%, lot A, test 1, 6 eyes, unwashed, 7 days",0.0
same,Classification (Kay and Calandra),"rabbit eye; 60%, lot A, test 1, unwashed eye",Nonirritating
same,Class. as Irritating Code of Federal Regulations,"rabbit eye; 80%, lot A, test 1",Negative
same,No. of Eyes Positive / No. of Eyes Tested CFR,"rabbit eye; 80%, lot A, test 1",0/6
same,Average Score (out of potential 100),"rabbit eye; 80%, lot A, test 1, 3 eyes, washed 2 sec., 1 hour",0.0
same,Average Score (out of potential 100),"rabbit eye; 80%, lot A, test 1, 3 eyes, washed 2 sec., 24 hours",0.0
same,Average Score (out of potential 100),"rabbit eye; 80%, lot A, test 1, 3 eyes, washed 2 sec., 48 hours",0.0
same,Average Score (out of potential 100),"rabbit eye; 80%, lot A, test 1, 3 eyes, washed 2 sec., 72 hours",0.0
same,Average Score (out of potential 100),"rabbit eye; 80%, lot A, test 1, 3 eyes, washed 2 sec., 96 hours",0.0
same,Average Score (out of potential 100),"rabbit eye; 80%, lot A, test 1, 3 eyes, washed 2 sec., 7 days",0.0
same,Average Score (out of potential 100),"rabbit eye; 80%, lot A, test 1, 6 eyes, unwashed, 1 hour",0.0
same,Average Score (out of potential 100),"rabbit eye; 80%, lot A, test 1, 6 eyes, unwashed, 24 hours",0.0
same,Average Score (out of potential 100),"rabbit eye; 80%, lot A, test 1, 6 eyes, unwashed, 48 hours",0.0
same,Average Score (out of potential 100),"rabbit eye; 80%, lot A, test 1, 6 eyes, unwashed, 72 hours",0.0
same,Average Score (out of potential 100),"rabbit eye; 80%, lot A, test 1, 6 eyes, unwashed, 96 hours",0.0
same,Average Score (out of potential 100),"rabbit eye; 80%, lot A, test 1, 6 eyes, unwashed, 7 days",0.0
same,Classification (Kay and Calandra),"rabbit eye; 80%, lot A, test 1, unwashed eye",Nonirritating
same,Class. as Irritating Code of Federal Regulations,"rabbit eye; 100%, lot A, test 1",Positive
same,No. of Eyes Positive / No. of Eyes Tested CFR,"rabbit eye; 100%, lot A, test 1",4/6
same,Average Score (out of potential 100),"rabbit eye; 100%, lot A, test 1, 3 eyes, washed 2 sec., 1 hour",0.0
same,Average Score (out of potential 100),"rabbit eye; 100%, lot A, test 1, 3 eyes, washed 2 sec., 24 hours",0.0
same,Average Score (out of potential 100),"rabbit eye; 100%, lot A, test 1, 3 eyes, washed 2 sec., 48 hours",0.0
same,Average Score (out of potential 100),"rabbit eye; 100%, lot A, test 1, 3 eyes, washed 2 sec., 72 hours",0.0
same,Average Score (out of potential 100),"rabbit eye; 100%, lot A, test 1, 3 eyes, washed 2 sec., 96 hours",0.0
same,Average Score (out of potential 100),"rabbit eye; 100%, lot A, test 1, 3 eyes, washed 2 sec., 7 days",0.0
same,Average Score (out of potential 100),"rabbit eye; 100%, lot A, test 1, 6 eyes, unwashed, 1 hour",0.0
same,Average Score (out of potential 100),"rabbit eye; 100%, lot A, test 1, 6 eyes, unwashed, 24 hours",15.0
same,Average Score (out of potential 100),"rabbit eye; 100%, lot A, test 1, 6 eyes, unwashed, 48 hours",10.3
same,Average Score (out of potential 100),"rabbit eye; 100%, lot A, test 1, 6 eyes, unwashed, 72 hours",10.0
same,Average Score (out of potential 100),"rabbit eye; 100%, lot A, test 1, 6 eyes, unwashed, 96 hours",10.0
same,Average Score (out of potential 100),"rabbit eye; 100%, lot A, test 1, 6 eyes, unwashed, 7 days",10.0
same,score of one eye (zero),"rabbit eye; 100%, lot A, test 1, unwashed",zero
same,Classification (Kay and Calandra),"rabbit eye; 100%, lot A, test 1, unwashed eye",Cannot be classified
same,maximum score of other eyes,"rabbit eye; 100%, lot A, test 1, unwashed, no other eye greater at any reading",≤ 14
same,score of one eye,"rabbit eye; 100%, lot A, test 1, unwashed, consistent score",60-64
same,Class. as Irritating Code of Federal Regulations,"rabbit eye; 100%, lot A, test 2",Negative
same,No. of Eyes Positive / No. of Eyes Tested CFR,"rabbit eye; 100%, lot A, test 2",0/6
same,Average Score (out of potential 100),"rabbit eye; 100%, lot A, test 2, 3 eyes, washed 2 sec., 1 hour",0.0
same,Average Score (out of potential 100),"rabbit eye; 100%, lot A, test 2, 3 eyes, washed 2 sec., 24 hours",0.0
same,Average Score (out of potential 100),"rabbit eye; 100%, lot A, test 2, 3 eyes, washed 2 sec., 48 hours",0.0
same,Average Score (out of potential 100),"rabbit eye; 100%, lot A, test 2, 3 eyes, washed 2 sec., 72 hours",0.0
same,Average Score (out of potential 100),"rabbit eye; 100%, lot A, test 2, 3 eyes, washed 2 sec., 96 hours",0.0
same,Average Score (out of potential 100),"rabbit eye; 100%, lot A, test 2, 3 eyes, washed 2 sec., 7 days",0.0
same,Average Score (out of potential 100),"rabbit eye; 100%, lot A, test 2, 6 eyes, unwashed, 1 hour",0.0
same,Average Score (out of potential 100),"rabbit eye; 100%, lot A, test 2, 6 eyes, unwashed, 24 hours",0.0
same,Average Score (out of potential 100),"rabbit eye; 100%, lot A, test 2, 6 eyes, unwashed, 48 hours",0.0
same,Average Score (out of potential 100),"rabbit eye; 100%, lot A, test 2, 6 eyes, unwashed, 72 hours",0.0
same,Average Score (out of potential 100),"rabbit eye; 100%, lot A, test 2, 6 eyes, unwashed, 96 hours",0.0
same,Average Score (out of potential 100),"rabbit eye; 100%, lot A, test 2, 6 eyes, unwashed, 7 days",0.0
same,Classification (Kay and Calandra),"rabbit eye; 100%, lot A, test 2, unwashed eye",Nonirritating
same,Class. as Irritating Code of Federal Regulations,"rabbit eye; 100%, lot B, test 1",Negative
same,No. of Eyes Positive / No. of Eyes Tested CFR,"rabbit eye; 100%, lot B, test 1",0/6
same,Average Score (out of potential 100),"rabbit eye; 100%, lot B, test 1, 3 eyes, washed 2 sec., 1 hour",2.7
same,Average Score (out of potential 100),"rabbit eye; 100%, lot B, test 1, 3 eyes, washed 2 sec., 24 hours",18.0
same,Average Score (out of potential 100),"rabbit eye; 100%, lot B, test 1, 3 eyes, washed 2 sec., 48 hours",17.3
same,Average Score (out of potential 100),"rabbit eye; 100%, lot B, test 1, 3 eyes, washed 2 sec., 72 hours",9.4
same,Average Score (out of potential 100),"rabbit eye; 100%, lot B, test 1, 3 eyes, washed 2 sec., 96 hours",8.7
same,Average Score (out of potential 100),"rabbit eye; 100%, lot B, test 1, 3 eyes, washed 2 sec., 7 days",0.0
same,Average Score (out of potential 100),"rabbit eye; 100%, lot B, test 1, 6 eyes, unwashed, 1 hour",3.7
same,Average Score (out of potential 100),"rabbit eye; 100%, lot B, test 1, 6 eyes, unwashed, 24 hours",11.3
same,Average Score (out of potential 100),"rabbit eye; 100%, lot B, test 1, 6 eyes, unwashed, 48 hours",5.6
same,Average Score (out of potential 100),"rabbit eye; 100%, lot B, test 1, 6 eyes, unwashed, 72 hours",5.0
same,Average Score (out of potential 100),"rabbit eye; 100%, lot B, test 1, 6 eyes, unwashed, 96 hours",5.0
same,Average Score (out of potential 100),"rabbit eye; 100%, lot B, test 1, 6 eyes, unwashed, 7 days",4.6
same,score of one other eye (zero),"rabbit eye; 100%, lot B, test 1, unwashed",zero
same,Classification (Kay and Calandra),"rabbit eye; 100%, lot B, test 1, unwashed eye",Mildly irritating
same,score of one eye,"rabbit eye; 100%, lot B, test 1, unwashed, consistently",28-30
same,variability in response of individual rabbit eyes,rabbit eye; undiluted,considerable variability in the response of individual rabbit eyes
same,survival,"rabbit skin [6]; undiluted, 1.00, 2.15, 4.64 and 10.0 ml per kg",All rabbits survived
same,acute percutaneous toxicity,"rabbit skin [6]; undiluted, rabbit skin under rubber dental dam, 24 hours",greater than 10 ml per kg of body weight
same,Signs of intoxication,rats,"depression, lacrimation, labored respiration, tachcardia and ataxia"
same,classification for acute oral toxicities (Hodge and Sterner),rats,practically nontoxic
same,examination of the tissues of the animals that died,rats; 6.81 and 10.0 ml/kg,"hyperemic lungs, slight irritation of the small intestine and congestion of kidneys and adrenals"
same,mortality,rats; 6.81 and 10.0 ml/kg,all of the 10 rats given the two higher dosages died
